From patent publication US4667032A, “Phenothiazone derivatives and analogs” (Merck Frosst Canada, Inc., priority 1985, dated 1987)
In brackets after ≈: the same amount, converted by molar mass.

What was measured:
5-Lipoxygenase = biological target: T1, 5-Lipoxygenase (Rattus norvegicus, UniProt P12527); test: RBL-1 5-Lipoxygenase; format: biochemical; settings: for IC50: Table 4, first part
T1 construct: Rat basophilic leukemia (RBL-1) cells were sonicated and centrifuged at 125000 xg; endogenous in cells; host or cells: RBL-1 (rat basophilic leukemia) cells, 125000 xg supernatant of sonicate
T1 sequence (P12527 1-673): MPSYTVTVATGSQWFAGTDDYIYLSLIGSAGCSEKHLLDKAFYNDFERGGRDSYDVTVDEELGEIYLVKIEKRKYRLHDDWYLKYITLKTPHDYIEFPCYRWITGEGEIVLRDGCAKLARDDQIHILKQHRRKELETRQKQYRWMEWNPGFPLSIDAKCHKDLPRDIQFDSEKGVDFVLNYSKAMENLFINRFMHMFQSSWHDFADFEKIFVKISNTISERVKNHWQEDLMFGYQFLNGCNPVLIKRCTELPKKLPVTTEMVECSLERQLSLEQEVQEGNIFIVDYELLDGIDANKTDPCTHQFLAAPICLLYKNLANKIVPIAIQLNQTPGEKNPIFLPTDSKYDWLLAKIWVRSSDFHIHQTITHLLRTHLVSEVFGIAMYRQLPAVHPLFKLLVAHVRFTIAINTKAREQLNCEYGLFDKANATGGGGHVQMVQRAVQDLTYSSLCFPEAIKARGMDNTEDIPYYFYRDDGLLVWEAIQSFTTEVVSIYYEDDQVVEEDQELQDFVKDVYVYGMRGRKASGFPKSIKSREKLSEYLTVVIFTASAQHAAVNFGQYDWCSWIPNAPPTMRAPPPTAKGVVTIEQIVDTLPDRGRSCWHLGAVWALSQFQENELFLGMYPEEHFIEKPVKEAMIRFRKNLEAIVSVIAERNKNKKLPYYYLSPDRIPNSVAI
Method: Rat basophilic leukemia (RBL-1) cells were sonicated and centrifuged at 125000 xg. The resulting supernatant fraction was incubated with arachidonic acid (labelled with ^14 C) to convert a portion of it to ^14 C-5(S)-hydroxyicosatetraenoic acid (5-HETE). Compounds being evaluated as inhibitors of 5-Lipoxygenase were added prior to the addition of arachidonic acid. 5-HETE was isolated by extraction and paper chromatography, and quantitated by determining the amount of radioactivity (cpm) associated with 5-HETE.
Reference: Egan, R. W., Tischler, A. M. Baptista, E. H., Ham, E. A., Soderman, D. D., and Gale, P. H., Advances in Prostaglandin, Thromboxane and Leukotriene Research 11 151 (1983), (Samuelson, B., Ramwell, P. W., and Paoletti, R. (eds.), Raven Press, N.Y.

[1] = tested on: Mouse peritoneal macrophages; test: Mouse Macrophage Assay (leukotriene C4 / PGE2 / 6-keto PGF1α formation, zymosan stimulated); format: cell-based; settings: Table 4, first part
Method: Mouse peritoneal macrophages were treated sequentially with arachidonic acid (labelled with tritium); the compound being evaluated as an inhibitor, and a stimulator (zymosan). Metabolites derived from arachidonic acid PGE2 6-keto PH-F1α and leukotriene C4) were separated from the incubation medium by extraction and chromatography, and then quantitated by determining the amount of radioactivity (cpm) associated with each of them. […] (This protocol is identical to that described in the reference except that the radioactivity herein associated with the LTC4 was determined by counting an aliquot of the final aqueous solution directly rather than chromatographing it first).
Reference: Humes, J. L. et al., J. Biol. Chem. 257, 1591-4, (1982).

[2] = tested on: tracheal chain of sensitized guinea pigs; test: Antigen Challenge 'in vitro' Assay (egg albumin contraction of sensitized guinea pig tracheal chain)
Method: Male guinea pigs weighing 300-350 g were sensitized by injecting (I.P.) 0.5 ml of a suspension containing 0.4 mg of egg albumin (Ovalbumin, Grade V, Sigma Chemical Co.) and 4.0 g aluminum hydroxide in 19.6 ml of saline. Two weeks were permitted for sensitization to occur.
Three sensitized guinea pigs were stunned and exsanguinated. The tracheas were removed, freed of adhering tissue and divided longitudinally by cutting through the cartilaginous tissue directly opposite the muscle insertion. Each opened trachea was then transected between every second cartilage. Four of the cut sections were tied together, end to end, in a series with No. 7 silk thread ensuring that the tracheal muscles were all in the same vertical plane. Thus, each chain consisted of tissue from three different animals.
The chain so formed was then suspended under 1 g of tension (by silk ties at each end) in a 20 ml organ bath containing 10 ml of modified* Krebs-Henseleit buffer solution gassed with 95% O2 and 5% CO2 at 37° C. Mepyramine (0.55 μg/ml) and indomethacin (2.67 μg/ml) were added to the buffer to avoid the contribution of histamine receptors and cyclooxygenase products to the contraction. To record responses one end of the tracheal chain was attached to a Gould-Statham UC-2 force displacement transducer which was connected to a Beckman Type R-dynograph.The preparations were allowed to equilibrate for one hour during which time the tissues were automatically washed (10 ml volume displacement) every 6 minutes.
After the equilibration period the tissues were primed with methacholine (3 μg/ml; 1.5×10^-5 M), washed and allowed to recover to baseline. The tissues were treated again with a second dose of methacholine, washed, allowed to return to baseline and washed for an additional hour.
Two chains were used as a control. These were incubated in a concentration of egg albumin sufficient to induce an average contraction of 50-80% of the methacholine response.
Each compound to be tested was added to two other baths (at a final concentration in each bath of 10 μg/ml) 15 minutes prior to challenging the fresh chains with egg albumin.
The response of the challenged tissue was expressed as a percentage of the methacholine maximum. The % inhibition for each compound was then calculated. Compounds which at 10 μg/ml (final conc.) inhibited the egg albumin response by 50% or more were retested at a lower concentration.

## O=c1ccc2nc3ccccc3sc-2c1 [Test No. 4]
5-Lipoxygenase
  IC50: 46.9 nM
[1]
  IC50: 0.1 µg/mL (≈ 0.469 µM)
[2]; 0.3 μg (μg/ml)
  In Vitro Antigen Challenge Test % Inhibition: 42%
[2]; 1 μg (μg/ml)
  In Vitro Antigen Challenge Test % Inhibition: 77%
[2]; 10 μg (μg/ml)
  In Vitro Antigen Challenge Test % Inhibition: 100%

## O=c1c(Cl)cc2nc3ccccc3sc-2c1Cl [Test No. 5]
5-Lipoxygenase; at 0.05 μg/ml, read-out: RBL-1, % at stated concentration
  inhibition at 0.05 µg/mL: 65%

## O=c1ccc2nc3ccccc3sc-2c1Cl [drawing 26]
5-Lipoxygenase
  IC50: 40.4 nM
[1]
  IC50: 0.2 µg/mL (≈ 0.807 µM)
[2]; 1 μg (μg/ml)
  In Vitro Antigen Challenge Test % Inhibition: 44%
[2]; 10 μg (μg/ml)
  In Vitro Antigen Challenge Test % Inhibition: 100%
